Key:
LXRα [1] = target: T1, LXRα (Homo sapiens, UniProt Q13133); experiment: cell-based GAL4-LXRα luciferase reporter assay; conditions: 293 cells with GAL4 DNA-binding domain fused to LXRα ligand-binding domain, UAS luciferase reporter; concentration producing 50% of maximal luciferase activity
T1 construct: expressed in transfected cells; host or cells: 293 cells
T1 sequence (Q13133 209-447 limits assumed): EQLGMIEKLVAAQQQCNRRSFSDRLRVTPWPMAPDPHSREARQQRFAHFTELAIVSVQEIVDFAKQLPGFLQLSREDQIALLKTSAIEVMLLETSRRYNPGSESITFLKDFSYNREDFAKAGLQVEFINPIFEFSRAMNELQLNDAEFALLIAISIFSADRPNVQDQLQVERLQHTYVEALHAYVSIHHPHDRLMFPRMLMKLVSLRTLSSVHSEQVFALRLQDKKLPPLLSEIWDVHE
Excerpt: (§1) LXRα agonist activity can be characterized in a cell-based assay or a peptide-sensor assay. The same assays can be utilized to characterize LXRα antagonist activity, by evaluating the ability of a compound to block the effects of an LXRα agonist, such as 24,25-epoxycholesterol.
Briefly, for the cell-based assay, a DNA-binding domain of the nonreceptor transcription factor GAL4 was fused to the putative ligand-binding domain of LXRα. The resultant construct was introduced into 293 cells, together with UAS-containing luciferase reporter construct. The transfected cells were then treated with chemical libraries and luciferase activity was measured. Individual compounds were evaluated relative to a control (no addition of compound) and the EC50 was determined as the concentration necessary to produce 50% of the maximal luciferase activity.

LXRα [2] = target: T2, LXRα (Homo sapiens, UniProt Q13133); experiment: peptide sensor LXR assay (in vitro); format: biochemical
T2 sequence (Q13133 1-447): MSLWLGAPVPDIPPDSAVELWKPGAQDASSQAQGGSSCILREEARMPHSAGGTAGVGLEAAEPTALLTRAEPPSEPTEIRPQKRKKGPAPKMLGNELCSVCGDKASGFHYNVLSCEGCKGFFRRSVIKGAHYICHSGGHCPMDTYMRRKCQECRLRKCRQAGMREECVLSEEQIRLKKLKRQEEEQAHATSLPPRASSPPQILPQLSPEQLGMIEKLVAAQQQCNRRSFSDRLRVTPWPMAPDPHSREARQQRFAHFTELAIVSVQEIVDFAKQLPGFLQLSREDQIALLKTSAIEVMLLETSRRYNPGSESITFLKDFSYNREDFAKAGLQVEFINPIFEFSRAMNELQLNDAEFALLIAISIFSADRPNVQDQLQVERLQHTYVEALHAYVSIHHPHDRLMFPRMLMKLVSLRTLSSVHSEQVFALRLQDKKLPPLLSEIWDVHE
Protocol: as §1
The peptide sensor LXR assay is an in vitro assay and was conducted as generally described in co-pending applications Ser. Nos. 08/975,614 (filed Nov. 21, 1997) and 09/163,713 (filed Sep. 30, 1998).

- EC50 (LXRα [1]): < 2 µM
- EC50 (LXRα [2]): < 2 µM
SMILES: O=S(=O)(Nc1ccc(C(O)(C(F)(F)F)C(F)(F)F)cc1)c1ccccc1 [Compound 2]

— patent US6316503A, “LXR modulators” (Tularik Inc., priority 2000, dated 2001)
